# Results reported in Sander's compilation of Henry's law constants (doi:10.1016/1352-2310(94)00256-k).
# Assay: Henry solubility constant Hcp at 298.15 K (mol/(m3 Pa))
# Details: reference: Dewulf et al. (1995)
row,SMILES,Henry solubility constant Hcp
1,CCc1ccccc1 [ethylbenzene],0.0015
2,ClC=C(Cl)Cl [trichloroethene],0.0012
3,Cc1ccccc1 [methylbenzene],0.0018
4,"Cc1ccccc1C [1,2-dimethylbenzene]",0.0024
5,"Cc1ccc(C)cc1 [1,4-dimethylbenzene]",0.0017
6,ClC(Cl)=C(Cl)Cl [tetrachloroethene],0.00069
7,ClC(Cl)(Cl)Cl [tetrachloromethane],0.00038
8,"Cc1cccc(C)c1 [1,3-dimethylbenzene]",0.0016
9,c1ccccc1 [benzene],0.0021
10,"CC(Cl)(Cl)Cl [1,1,1-trichloroethane]",0.00067
